Experiments:
Assay in all cases: IC50 for competition of protein binding to Kinobeads
Conditions in all cases: assay detail: Kinobeads competition in P. falciparum blood-stage lysate
UniProt Q8IAW5 = molecular target: UniProt Q8IAW5
UniProt O97313 = molecular target: UniProt O97313
UniProt Q8IKW5 = molecular target: UniProt Q8IKW5
UniProt Q8I5B6 = molecular target: UniProt Q8I5B6
UniProt O96212 = molecular target: UniProt O96212
UniProt Q8IDN4 = molecular target: UniProt Q8IDN4
UniProt Q8IIC0 = molecular target: UniProt Q8IIC0
UniProt C6S3E1 = molecular target: UniProt C6S3E1
UniProt Q8IJ99 = molecular target: UniProt Q8IJ99
UniProt Q8IDS6 = molecular target: UniProt Q8IDS6
UniProt Q8III3 = molecular target: UniProt Q8III3
UniProt Q8IE43 = molecular target: UniProt Q8IE43
UniProt C6KTB1 = molecular target: UniProt C6KTB1
UniProt Q8IL94 = molecular target: UniProt Q8IL94
UniProt Q8IDD4 = molecular target: UniProt Q8IDD4
UniProt Q8IJE1 = molecular target: UniProt Q8IJE1
UniProt C0H4P4 = molecular target: UniProt C0H4P4
UniProt Q8I5S7 = molecular target: UniProt Q8I5S7
UniProt Q9TY99 = molecular target: UniProt Q9TY99
UniProt Q8IDZ2 = molecular target: UniProt Q8IDZ2
UniProt Q8ILG6 = molecular target: UniProt Q8ILG6
UniProt O97248 = molecular target: UniProt O97248
UniProt C6KTB4 = molecular target: UniProt C6KTB4
UniProt Q8IBS3 = molecular target: UniProt Q8IBS3
UniProt Q8I603 = molecular target: UniProt Q8I603
UniProt C6KT76 = molecular target: UniProt C6KT76
UniProt Q8I5C6 = molecular target: UniProt Q8I5C6
UniProt Q8IKQ7 = molecular target: UniProt Q8IKQ7
UniProt Q76NN8 = molecular target: UniProt Q76NN8
UniProt Q8IKL1 = molecular target: UniProt Q8IKL1
UniProt Q8I467 = molecular target: UniProt Q8I467
UniProt Q7K6A8 = molecular target: UniProt Q7K6A8
UniProt Q8I5H7 = molecular target: UniProt Q8I5H7
UniProt Q8IIB7 = molecular target: UniProt Q8IIB7
UniProt Q7K6A0 = molecular target: UniProt Q7K6A0
UniProt Q8I415 = molecular target: UniProt Q8I415
UniProt Q8IIA4 = molecular target: UniProt Q8IIA4
UniProt Q8IBJ1 = molecular target: UniProt Q8IBJ1
UniProt Q8IJX0 = molecular target: UniProt Q8IJX0
UniProt Q8I3U9 = molecular target: UniProt Q8I3U9
UniProt Q8ILE8 = molecular target: UniProt Q8ILE8
UniProt Q8IAX6 = molecular target: UniProt Q8IAX6
UniProt C0H5J5 = molecular target: UniProt C0H5J5
UniProt Q8IID2 = molecular target: UniProt Q8IID2
UniProt C0H4K8 = molecular target: UniProt C0H4K8
UniProt Q8IJ72 = molecular target: UniProt Q8IJ72
UniProt Q8I3L4 = molecular target: UniProt Q8I3L4
UniProt Q8I5K4 = molecular target: UniProt Q8I5K4
UniProt C6KSY6 = molecular target: UniProt C6KSY6
UniProt Q8IIF0 = molecular target: UniProt Q8IIF0
UniProt O77361 = molecular target: UniProt O77361
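Further: native unpurified kinases from lysate captured on beads bearing immobilized kinase inhibitors, with bead-bound kinases quantified by mass spectrometry across compound doses.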

Chain of UniProt Q8IDN4 (Q8IDN4 whole entry): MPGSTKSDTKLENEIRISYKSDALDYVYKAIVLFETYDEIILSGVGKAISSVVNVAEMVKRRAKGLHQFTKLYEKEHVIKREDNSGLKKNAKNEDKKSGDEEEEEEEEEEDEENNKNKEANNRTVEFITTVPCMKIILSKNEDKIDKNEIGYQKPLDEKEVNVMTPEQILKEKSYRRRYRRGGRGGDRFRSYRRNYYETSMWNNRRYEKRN
Chain of UniProt Q8I467 (Q8I467 whole entry): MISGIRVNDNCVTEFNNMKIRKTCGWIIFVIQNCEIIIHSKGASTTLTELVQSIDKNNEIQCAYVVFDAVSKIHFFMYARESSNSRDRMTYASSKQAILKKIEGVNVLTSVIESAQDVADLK
Chain of UniProt O97313 (O97313 whole entry): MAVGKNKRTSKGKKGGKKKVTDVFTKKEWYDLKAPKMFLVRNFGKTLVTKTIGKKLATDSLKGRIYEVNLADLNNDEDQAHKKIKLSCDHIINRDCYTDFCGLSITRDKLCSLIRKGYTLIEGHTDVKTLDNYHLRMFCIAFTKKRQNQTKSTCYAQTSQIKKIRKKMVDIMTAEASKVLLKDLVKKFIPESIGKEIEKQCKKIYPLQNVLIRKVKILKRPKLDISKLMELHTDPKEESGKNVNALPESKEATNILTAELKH

O=c1[nH]c2ccc(Cl)cc2c(NC2CN3CCC2CC3)c1-c1nc2ccccc2[nH]1 (stereo unspecified) [CHIR-124]
IC50 (UniProt Q8IAW5): > 20 µM | IC50 (UniProt O97313): > 20 µM | IC50 (UniProt Q8IKW5): > 20 µM | IC50 (UniProt Q8I5B6): > 20 µM | IC50 (UniProt O96212): > 20 µM | IC50 (UniProt Q8IDN4): > 20 µM | IC50 (UniProt Q8IIC0): > 20 µM | IC50 (UniProt C6S3E1): > 20 µM | IC50 (UniProt Q8IJ99): > 20 µM | IC50 (UniProt Q8IDS6): > 20 µM | IC50 (UniProt Q8III3): > 20 µM | IC50 (UniProt Q8IE43): > 20 µM | IC50 (UniProt C6KTB1): > 20 µM | IC50 (UniProt Q8IL94): > 20 µM | IC50 (UniProt Q8IDD4): > 20 µM | IC50 (UniProt Q8IJE1): > 20 µM | IC50 (UniProt C0H4P4): > 20 µM | IC50 (UniProt Q8I5S7): > 20 µM | IC50 (UniProt Q9TY99): > 20 µM | IC50 (UniProt Q8IDZ2): > 20 µM | IC50 (UniProt Q8ILG6): > 20 µM | IC50 (UniProt O97248): > 20 µM | IC50 (UniProt C6KTB4): > 20 µM | IC50 (UniProt Q8IBS3): > 20 µM | IC50 (UniProt Q8I603): > 20 µM | IC50 (UniProt C6KT76): > 20 µM | IC50 (UniProt Q8I5C6): > 20 µM | IC50 (UniProt Q8IKQ7): > 20 µM | IC50 (UniProt Q76NN8): > 20 µM | IC50 (UniProt Q8IKL1): > 20 µM | IC50 (UniProt Q8I467): > 20 µM | IC50 (UniProt Q7K6A8): > 20 µM | IC50 (UniProt Q8I5H7): > 20 µM | IC50 (UniProt Q8IIB7): > 20 µM | IC50 (UniProt Q7K6A0): 0.865 µM | IC50 (UniProt Q8I415): > 20 µM | IC50 (UniProt Q8IIA4): > 20 µM | IC50 (UniProt Q8IBJ1): > 20 µM | IC50 (UniProt Q8IJX0): > 20 µM | IC50 (UniProt Q8I3U9): > 20 µM | IC50 (UniProt Q8ILE8): > 20 µM | IC50 (UniProt Q8IAX6): > 20 µM | IC50 (UniProt C0H5J5): > 20 µM | IC50 (UniProt Q8IID2): > 20 µM | IC50 (UniProt C0H4K8): > 20 µM | IC50 (UniProt Q8IJ72): > 20 µM | IC50 (UniProt Q8I3L4): > 20 µM | IC50 (UniProt Q8I5K4): > 20 µM | IC50 (UniProt C6KSY6): > 20 µM | IC50 (UniProt Q8IIF0): > 20 µM | IC50 (UniProt O77361): > 20 µM
